≈ marks a conversion by molar mass, not a printed value.

What all share (assay type): cell-based
One experiment concerns Aspergillus fumigatus. Briefly: In Vitro Agar Screening Test. The note with it: potato dextrose agar, 30°C, levels 1, 5, 10, 50 μg/ml, read-out: Minimum Inhibitory Concentration. The procedure: (§1) This test measures the bactericidal, fungicidal and algaecidal properties of a compound when in contact with growing bacteria, fungi or algae in an artificial medium. The test is conducted by adding 20 ml portions of a suitable warm sterile agar solution into 20 × 100 mm Petri dishes at levels of 1, 5, 10 and 50 μg/ml and mixed with the warm mobile agar solution. The treated agar mixture is then allowed to come to room temperature and solidify. Cells of the chosen organism are streaked on the surface of the solidified agar and are then incubated for such lengths of time that untreated samples containing no toxicant show luxurious growth typical of the particular organism. This time varies from 24 hours to 1 week depending on the particular organism. The fungi are incubated at 30°C and the bacteria are incubated at 37°C. The algae are incubated at room temperature under artificial light. Nutrient agar is used as the medium in this test for the bacteria. Potato dextrose agar is used as the medium for the fungi with the exception of Trichophyton mentagrophytes for which Emmons agar is used. A modified Jack Meyers agar is used for the growth of the algae.
(§2) The extent of growth is noted at the end of the incubation period.

In a further experiment the test system is Aspergillus niger. Briefly: In Vitro Agar Screening Test. Conditions: potato dextrose agar, 30°C, levels 1, 5, 10, 50 μg/ml, read-out: Minimum Inhibitory Concentration. The procedure:
as §1, §2

The next experiment has as its system Aspergillus oryzae. Briefly: In Vitro Agar Screening Test. Conditions: potato dextrose agar, 30°C, levels 1, 5, 10, 50 μg/ml, read-out: Minimum Inhibitory Concentration. How it is done:
as §1, §2

The test system of a further experiment is Bacillus cereus. Description: In Vitro Agar Screening Test. Conditions: nutrient agar, 37°C, levels 1, 5, 10, 50 μg/ml, read-out: Minimum Inhibitory Concentration. How it is done: as §1, §2
In the next experiment the test system is Chlorella pyrenoidosa. Briefly: In Vitro Agar Screening Test. Conditions: Auxenochlorella pyrenoidosa, modified Jack Meyers agar, room temperature, artificial light, levels 1, 5, 10, 50 μg/ml, read-out: Minimum Inhibitory Concentration. How it is done:
as §1, §2

The subject of another experiment is Enterobacter aerogenes. Description: In Vitro Agar Screening Test. The note with it: Klebsiella aerogenes, nutrient agar, 37°C, levels 1, 5, 10, 50 μg/ml, read-out: Minimum Inhibitory Concentration. The procedure: as §1, §2
A further experiment concerns Escherichia coli. Briefly: In Vitro Agar Screening Test. Conditions: nutrient agar, 37°C, levels 1, 5, 10, 50 μg/ml, read-out: Minimum Inhibitory Concentration. How it is done: as §1, §2
The next experiment has as its system Euglena gracilis. Briefly: In Vitro Agar Screening Test. The note with it: modified Jack Meyers agar, room temperature, artificial light, levels 1, 5, 10, 50 μg/ml, read-out: Minimum Inhibitory Concentration. The procedure:
as §1, §2

For another experiment, the system named is Pencillium expansum. Briefly: In Vitro Agar Screening Test. Conditions: potato dextrose agar, 30°C, levels 1, 5, 10, 50 μg/ml, read-out: Minimum Inhibitory Concentration. The procedure: as §1, §2
The next experiment deals with Pencillium ochra-chloron. Description: In Vitro Agar Screening Test. The note with it: potato dextrose agar, 30°C, levels 1, 5, 10, 50 μg/ml, read-out: Minimum Inhibitory Concentration. How it is done:
as §1, §2

For another experiment, the system named is Pseudomonas aeruginosa. Briefly: In Vitro Agar Screening Test. Conditions: nutrient agar, 37°C, levels 1, 5, 10, 50 μg/ml, read-out: Minimum Inhibitory Concentration. How it is done: as §1, §2
In a further experiment the test system is Pseudomonas fluorescens. Description: In Vitro Agar Screening Test. The note with it: nutrient agar, 37°C, levels 1, 5, 10, 50 μg/ml, read-out: Minimum Inhibitory Concentration. How it is done:
as §1, §2

The subject of a further experiment is Scenedesmus obliquus. Briefly: In Vitro Agar Screening Test. Conditions: Tetradesmus obliquus, modified Jack Meyers agar, room temperature, artificial light, levels 1, 5, 10, 50 μg/ml, read-out: Minimum Inhibitory Concentration. The procedure: as §1, §2
In a further experiment the test system is Trichoderma sp. Description: In Vitro Agar Screening Test. Conditions: potato dextrose agar, 30°C, levels 1, 5, 10, 50 μg/ml, read-out: Minimum Inhibitory Concentration. How it is done: as §1, §2
Experiment [1] has as its system Trichophyton mentagrophytes. Briefly: In Vitro Agar Screening Test. Conditions: Emmons agar, 30°C, levels 1, 5, 10, 50 μg/ml, read-out: Minimum Inhibitory Concentration. How it is done: as §1, §2
Another experiment has as its system Staphylococcus aureus. Briefly: Staphylococcus Aureus Use Dilution Test. Conditions: Tryptic Soy Broth, 24 hours at 37°C, minimum concentration in which no growth occurs, read-out: Minimum Inhibitory Concentration. How it is done: This test measures the bacteriostatic effectiveness of a particular test compound against Staphylococcus aureus. Tryptic Soy Broth is dispensed aseptically into sterile 13 × 100 mm clear glass culture tubes. The first tube receives 3.6 ml of medium and tubes 2 through 10 receive 2.0 ml of medium. The test compound is dissolved in acetone to give 10 ml of a solution of 0.10% of the test compound. Using a sterile syringe, 0.4 ml of the test compound solution is placed in the first tube containing the 3.6 ml of sterile broth and mixed thoroughly. This operation is continued through to the tenth tube. From the tenth tube, 2.0 ml of solution is removed and discarded. Each tube is then inoculated with 0.1 ml of a 24-hour culture of Staphylococcus aureus in Tryptic Soy Broth, and the mixture is mixed thoroughly using a Vortex mixer. A control is also set up to be sure that the inoculum is viable using a tube of sterile broth containing no added toxicant. The tubes are incubated for 24 hours at 37°C. The tubes are then examined to determine growth of the organism in the culture tubes. The minimum concentration in which no growth of the organism occurs is recorded. The following table gives the minimum inhibitory concentration necessary to control the organism: […]

`O=C(CBr)OC1CCOC1` (stereo not shown) [Compound No. 1, 3-bromoacetoxy tetrahydrofuran]: the MIC with Aspergillus fumigatus was 50 µg/mL (≈ 239 µM); in the experiment with Aspergillus niger, 5 µg/mL (≈ 23.9 µM); in the experiment on Aspergillus oryzae, 50 µg/mL (≈ 239 µM); with Bacillus cereus it was 50 µg/mL (≈ 239 µM); in the experiment with Chlorella pyrenoidosa, 1 µg/mL (≈ 4.78 µM); in the experiment on Enterobacter aerogenes it was 50 µg/mL (≈ 239 µM). The MIC is > 50 µg/mL in the experiment with Escherichia coli; 5 µg/mL (≈ 23.9 µM) in the experiment with Euglena gracilis; 50 µg/mL (≈ 239 µM) with Pencillium expansum; 50 µg/mL (≈ 239 µM) in the experiment on Pencillium ochra-chloron; > 50 µg/mL in the experiment with Pseudomonas aeruginosa; > 50 µg/mL in the experiment on Pseudomonas fluorescens. The MIC in the experiment with Scenedesmus obliquus is 1 µg/mL (≈ 4.78 µM); in the experiment with Trichoderma sp., 50 µg/mL (≈ 239 µM); in [1], 50 µg/mL (≈ 239 µM); in the experiment on Staphylococcus aureus it was 12.5 µg/mL (≈ 59.8 µM).

The record behind these values is patent publication US3953478A, “Tetrahydrofuranyl bromoacetates biocides” (Stauffer Chemical Company, priority 1975, dated 1976).
